Results on 2 compounds are retold here after US10150793B2, “Antagonists of CB1 receptor” (INSERM (Institut National de la Santé et de la Recherche …, priority 2011, dated 2018).

The target of series [1] is T1, CB1 receptor (Rattus norvegicus, UniProt P20272). The series can be described thus: THC inhibition of AMPAR-mediated EPSC, patch clamp in nucleus accumbens slices. The series is classed as cell-based, rats. Set-up: from tissue; host or cells: acute coronal brain slices, nucleus accumbens. To be noted: control slices.
T1 sequence (P20272 whole entry): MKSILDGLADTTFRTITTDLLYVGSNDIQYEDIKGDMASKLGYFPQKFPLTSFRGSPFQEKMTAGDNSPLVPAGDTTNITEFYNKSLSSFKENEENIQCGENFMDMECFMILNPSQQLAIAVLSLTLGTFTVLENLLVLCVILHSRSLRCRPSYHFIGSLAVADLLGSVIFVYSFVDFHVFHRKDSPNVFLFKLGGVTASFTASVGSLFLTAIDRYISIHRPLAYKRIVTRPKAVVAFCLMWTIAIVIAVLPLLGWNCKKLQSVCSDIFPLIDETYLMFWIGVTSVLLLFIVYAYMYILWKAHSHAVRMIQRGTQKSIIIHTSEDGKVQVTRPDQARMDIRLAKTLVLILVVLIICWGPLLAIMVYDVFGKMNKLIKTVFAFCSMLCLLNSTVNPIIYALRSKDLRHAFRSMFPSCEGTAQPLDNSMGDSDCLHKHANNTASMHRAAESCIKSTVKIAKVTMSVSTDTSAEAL
The target of series [2] is T1, CB1 receptor. The series can be described thus: Pregnenolone concentrations in the brain after drugs of abuse and CB1 ligands (GC/MS). The series is classed as in vivo, Wistar rats. Details: tissue Charles River Laboratories (France) (animals); host or cells: living Wistar rats, whole animal. How it is done:
Plasma, brain and culture medium levels of pregnenolone (5-Pregnen-3β-ol-20-one), allopregnanolone (3α-hydroxy-5α-pregnan-20-one), epiallopregnanolone (3β-hydroxy-5α-pregnan-ol-20-one), testosterone, and 5α dihydrotestosterone were determined by GC/MS according to the of estraction, purification and quantification protocol described previously (George O, et al., Biol Psychiatry. 2010 68: 956-63, Vallee M, et al., Anal Biochem. 2000, 287:153-66).
In this example the inventors analyzed the effects of the injection of the principal drugs of abuse on the production of pregnenolone in male Wistar rats. […] For example, in the brain, starting from pregnenolone two parallel enzymatic cascades allow producing on one hand allopregnanolone and its stereoisomer epiallopregnanolone and on the other testosterone and its metabolite DHT. These brain steroids were quantified using GC-MS, the only technique able to differentiate their subtle structural differences. […] Concentrations of neurosteroids were analyzed 15, 30 and 120 min after the injection in several ascending brain structure, the ventral midbrain the hypothalamus, the striatal complex and the frontal cortex.
The example provides data obtained in the plasma and in several brain structures: frontal cortex (FCX); nucleus accumbens (ACC); striatum (STR); hypothalamus (HYP).
The effects of THC in the brain are mediated by a family of G-protein-coupled seven membrane receptors (GCPR) and principally by the CB1 and CB2 receptors.

In series [3] the target is CB1 receptor (Mus musculus, UniProt P47746). The series can be described thus: THC inhibition of fEPSP in nucleus accumbens slices. In kind it is cell-based, mice. Set-up: from tissue; host or cells: acute brain slices, nucleus accumbens. To be noted: control slices. The method, then:
Animals were deeply anesthetized with Isoflourane and transcardially perfused with a sucrose-based physiological solution at 4° C. (in mM: 23 NaHCO3, 70 Choline Cl, 75 Sucrose, 25 Glucose, 2.5 KCl, 1.25 NaH2PO4, 7 MgCl2 and 0.5 CaCl2). The brain was removed and sliced (250-300 μm) in the coronal plane using a vibratome (Campden Instruments, Loughborough, UK). During the slicing process, the brain was maintained in the sucrose-based solution. Immediately after cutting, slices were stored at 32° C. for 40 minutes in a low-calcium artificial cerebrospinal fluid (low-Ca^2+ ACSF) that contained (in mM): 23 NaHCO3, 120 NaCl, 11 Glucose, 2.5 KCl, 1.2 NaH2PO4, 2.4 MgCl2, 1.2 CaCl2. Slices were then stored in low-Ca^2+ ACSF at room temperature until recording.
For fEPSPs, extracellular glass recording and stimulating electrodes were filled with ACSF. Synaptic potentials were evoked by means of two electric stimuli (0.1-0.25 mA, 200 μsec duration) delivered at 20 Hz every 10 seconds. Stimulating electrode was placed at a distance>150 μm in the dorsomedial direction from the recoding electrode.
In order to test the effect of pregnenolone on a wider range of THC concentrations, we recorded fEPSP in NAc slices. Due to the possibility to achieved stable fEPSP measurements for several hours, this technique is ideally suited to perform dose-response curves and has previously been used to address CB1 receptor function (Robbe et al., 2001; Mato et al., 2004). Thus, AMPAR-mediated evoked fEPSP were recorded by electrically stimulating local axons.

Series [4] in a line: Elevated plus maze, anxiety-like behaviors. In kind it is in vivo, mice. The conditions noted are these: sc, 30 min before test; pregnenolone 1, 6, 10 mg/kg; rimonabant 10 mg/kg. The method, then:
The elevated plus maze was made by a central platform (10×10 cm) from which departed 4 arms (45×10 cm) at a 90° angle from each other. Two opposite arms, named closed arms had peripheral wall 50 cm high. The two other arms, named open arms had no walls. The maze was suspended at 66 cm from the floor of the room and was brightly lighted (120 lux). The testing consisted in placing the animal in the central platform and the number of entry and the time spent in each compartment of the maze recorded for 5 min. The number of entry and time spent in the open arms are considered and index of anxiety-like behaviors, whilst the total number of entry are and index of locomotor activity.
One of the major side effects of orthosteric antagonists of the CB1 is the induction of behavioral side effect and in particular an axiodepressive state. […] This test has been chosen because an increase in anxiety was the principal undesirable side effect of this compound in humans.

Chain of CB1 receptor (Mus musculus, UniProt P47746) (P47746 whole entry, the tested form may be a part): as the sequence (P20272 whole entry) above, with E95D counted along it

For orientation: ED50 means the dose at which the effect has come halfway, by size or by number of responders. By inhibition is commonly meant how much of the control response was suppressed. Read a low inhibition as little suppression. Turning to `CCCCCc1cc(O)c2c(c1)OC(C)(C)[C@@H]1CCC(C)=C[C@@H]21` [THC, Δ9-tetrahydrocannbinol, reference compound], the “inhibition of EPSC amplitude by THC” value at CB1 receptor [1] is listed as 34.3±3.7 % of inhibition. Further, the “increase in brain concentrations of pregnenolone” value on CB1 receptor [2] (nucleus accumbens, between 15 and 30 min after the injection, THC 3 mg/kg) is reported as “around 1500%”. For the same compound, the ED50 at CB1 receptor [2] (rat, 30 min after the injection, THC 0.3-9 mg/kg, read-out: ED50 of the increase in pregnenolone in the brain) is roughly 3 mg/kg. Moreover, 10 µM produced 23.9 ± 6% inhibition against CB1 receptor [3] (THC 10 μM). Moreover, at CB1 receptor [3] (THC 20 μM), the inhibition at 20 µM was 35.3 ± 4.7%. 40 µM produced 48.6 ± 3.6% inhibition against CB1 receptor [3] (THC 40 μM).
As for `Cc1c(C(=O)NN2CCCCC2)nn(-c2ccc(Cl)cc2Cl)c1-c1ccc(Cl)cc1` [rimonabant, reference compound], the “anxiety-like behavior (entries and time spent in open arms)” value in series [4] is “anxiogenic effects”.
